Test results taken from US20120315654A1, “COMPOSITIONS AND METHODS FOR DETECTING CARDIOTOXICITY” (DUKE UNIVERSITY, priority 2011, published 2012).

Tests used:
CrT [1] = target: T1, CrT (Homo sapiens, UniProt P48029); assay: DOX competition assay: 14C-Cr uptake in the presence of DOX and/or B-GPA; assay type: cell-based; conditions: acute exposure during uptake; 2 μmol/L DOX, 100 μmol/L B-GPA; control = 1.00
T1 construct: swapped with the corresponding fragment from the human full-length open reading frame; expressed in transfected cells; host or cells: HL-1 murine atrial cardiomyocyte line, transient transfection with pcDNA3.1(-) human CrT cDNA
T1 sequence (P48029 1-635): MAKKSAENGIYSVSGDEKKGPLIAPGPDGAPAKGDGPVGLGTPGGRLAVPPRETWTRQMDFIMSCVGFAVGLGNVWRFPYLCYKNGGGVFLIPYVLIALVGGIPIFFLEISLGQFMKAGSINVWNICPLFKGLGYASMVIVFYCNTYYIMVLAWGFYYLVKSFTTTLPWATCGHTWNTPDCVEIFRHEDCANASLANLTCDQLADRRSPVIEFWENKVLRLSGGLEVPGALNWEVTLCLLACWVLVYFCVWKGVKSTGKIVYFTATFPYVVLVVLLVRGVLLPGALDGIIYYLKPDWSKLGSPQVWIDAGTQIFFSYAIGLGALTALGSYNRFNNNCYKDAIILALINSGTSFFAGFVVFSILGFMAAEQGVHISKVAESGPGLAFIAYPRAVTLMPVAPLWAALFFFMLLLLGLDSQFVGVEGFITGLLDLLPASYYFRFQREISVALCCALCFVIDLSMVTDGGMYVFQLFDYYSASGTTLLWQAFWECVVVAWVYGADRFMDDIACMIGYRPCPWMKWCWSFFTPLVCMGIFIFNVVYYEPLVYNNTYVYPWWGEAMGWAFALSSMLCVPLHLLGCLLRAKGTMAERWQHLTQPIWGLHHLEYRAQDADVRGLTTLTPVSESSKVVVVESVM
Description: (§1) Cells used for Cr transport assays were cultured in 24-well plates coated with fibronectin and gelatin. The wells were washed twice with room temperature choline buffer (150 mmol/L choline chloride; 1 mmol/L CaCl2; 5 mmol/L MgCl2; 2 mmol/L KCl; and 5 mmol/L HEPES-Tris, pH 7.5).
(§2) The cells were lysed with 500 mmol/L NaOH and heated to 80° C. for 30 min. 100 μl of cell lysate was subjected to scintillation counting using a BECKMAN COULTER LS 6500 scintillation counter. Cr transport was normalized to the protein concentration measured using the bicinchoninic acid (BCA) protein assay (PIERCE BIOTECHNOLOGY, Rockford, Ill.).

Cr transport = target: T2, Cr transport (Homo sapiens, UniProt P48029); conditions: Dai W. et al., 1999; read-out: IC50 for inhibition of Cr transport; cited from earlier work
T2 sequence (P48029 1-635): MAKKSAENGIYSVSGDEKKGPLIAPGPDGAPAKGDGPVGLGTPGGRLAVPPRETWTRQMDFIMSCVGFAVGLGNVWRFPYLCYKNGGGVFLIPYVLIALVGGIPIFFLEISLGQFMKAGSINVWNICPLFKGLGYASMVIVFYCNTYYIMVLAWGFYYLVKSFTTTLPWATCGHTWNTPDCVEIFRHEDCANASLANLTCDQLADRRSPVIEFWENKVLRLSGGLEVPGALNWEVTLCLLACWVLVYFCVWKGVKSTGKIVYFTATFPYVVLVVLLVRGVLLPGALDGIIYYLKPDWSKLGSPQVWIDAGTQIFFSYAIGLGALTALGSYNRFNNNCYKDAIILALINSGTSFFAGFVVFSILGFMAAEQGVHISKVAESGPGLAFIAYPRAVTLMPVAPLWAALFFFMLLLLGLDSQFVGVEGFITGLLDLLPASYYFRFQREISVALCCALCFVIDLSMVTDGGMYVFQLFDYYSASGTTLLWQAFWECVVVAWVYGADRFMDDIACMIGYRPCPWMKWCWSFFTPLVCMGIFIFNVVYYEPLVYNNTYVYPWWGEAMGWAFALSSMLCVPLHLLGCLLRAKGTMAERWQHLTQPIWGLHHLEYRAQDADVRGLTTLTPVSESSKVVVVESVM

CrT [2] = target: T1, CrT; assay: 14C-Cr transport in HL-1 cells expressing the human CrT protein (dose-response, time course, kinetics); assay type: cell-based; conditions: HL-1 cells expressing human CrT, Michaelis-Menten, no DOX
Description: The cultures were maintained in a humidified atmosphere of 5% CO2 at 37° C.
as §1, §2

[3] = substrate: CN(CC(=O)O)C(=N)N; assay: as above; assay type: cell-based; conditions: other: HL-1 cells expressing human CrT, Michaelis-Menten, no DOX; pH 7.5
Description: Cells were plated on tissue culture dishes pre-coated with gelatin/fibronectin and allowed to grow in M199 media (INVITROGEN, Carlsbad, Calif.) containing 2% serum before experimentation. […] The cultures were maintained in a humidified atmosphere of 5% CO2 at 37° C.
Cultures intended for Cr transport measurements were grown in 24-well culture plates, whereas those used to characterize the CrT protein were cultured in 6-well dishes.
Cr transport assays were performed after growth in control media for 0, 4, 12, 24 or 48 hrs.
For experiments with RNCM, each condition was tested in quadruplicate. Measurements were performed in triplicate for experiments performed using HL-1 cells.

NC(N)=NCCC(=O)O [β-GPA]
Relative Vmax ± SEM (CrT [1]): 0.43 ± 0.11 | IC50 (Cr transport): 50 µM

CN(CC(=O)O)C(=N)N [Cr, Creatine]
Cr transport Vmax (CrT [2]): 42.9±5.24 nmol/mg protein

B1: human CrT (Homo sapiens) (protein)
chain: MAKKSAENGIYSVSGDEKKGPLIAPGPDGAPAKGDGPVGLGTPGGRLAVPPRETWTRQMDFIMSCVGFAVGLGNVWRFPYLCYKNGGGVFLIPYVLIALVGGIPIFFLEISLGQFMKAGSINVWNICPLFKGLGYASMVIVFYCNTYYIMVLAWGFYYLVKSFTTTLPWATCGHTWNTPDCVEIFRHEDCANASLANLTCDQLADRRSPVIEFWENKVLRLSGGLEVPGALNWEVTLCLLACWVLVYFCVWKGVKSTGKIVYFTATFPYVVLVVLLVRGVLLPGALDGIIYYLKPDWSKLGSPQVWIDAGTQIFFSYAIGLGALTALGSYNRFNNNCYKDAIILALINSGTSFFAGFVVFSILGFMAAEQGVHISKVAESGPGLAFIAYPRAVTLMPVAPLWAALFFFMLLLLGLDSQFVGVEGFITGLLDLLPASYYFRFQREISVALCCALCFVIDLSMVTDGGMYVFQLFDYYSASGTTLLWQAFWECVVVAWVYGADRFMDDIACMIGYRPCPWMKWCWSFFTPLVCMGIFIFNVVYYEPLVYNNTYVYPWWGEAMGWAFALSSMLCVPLHLLGCLLRAKGTMAERWQHLTQPIWGLHHLEYRAQDADVRGLTTLTPVSESSKVVVVESVM
notes: swapped with the corresponding fragment from the human full-length open reading frame; expressed in transfected cells; host or cells: HL-1 murine atrial cardiomyocyte line, transient transfection with pcDNA3.1(-) human CrT cDNA
Km [3]: 63.5 ± 2.37 µM
